Legend:
Assay in all cases: relative viability (nuclei count vs DMSO), 5 days (fraction); higher = more cells survive
Linsitinib + Pictilisib = compound: C[C@]1(O)C[C@@H](c2nc(-c3ccc4ccc(-c5ccccc5)nc4c3)c3c(N)nccn32)C1 [Linsitinib] + CS(=O)(=O)N1CCN(Cc2cc3nc(-c4cccc5[nH]ncc45)nc(N4CCOCC4)c3s2)CC1 [Pictilisib] (partner 1 µM)
In short: (§1)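 Five library-drug doses in √10 steps were combined with a fixed anchor-drug dose, or a single drug was given alone, by pin tool to lung cancer cell lines in 1536-well plates the day after seeding. Nuclei were stained and counted after 5 days. Relative viability is the nuclei count in treated wells over that in vehicle wells, taken as the median of duplicate plates.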

Ispinesib + Palbociclib = compound: Cc1ccc(C(=O)N(CCCN)[C@@H](c2nc3cc(Cl)ccc3c(=O)n2Cc2ccccc2)C(C)C)cc1 [Ispinesib] + CC(=O)c1c(C)c2cnc(Nc3ccc(N4CCNCC4)cn3)nc2n(C2CCCC2)c1=O [Palbociclib] (partner 0.5 µM)
In short: as §1

Ispinesib + Dasatinib = compound: Cc1ccc(C(=O)N(CCCN)[C@@H](c2nc3cc(Cl)ccc3c(=O)n2Cc2ccccc2)C(C)C)cc1 [Ispinesib] + Cc1nc(Nc2ncc(C(=O)Nc3c(C)cccc3Cl)s2)cc(N2CCN(CCO)CC2)n1 [Dasatinib] (partner 0.075 µM)
In short: as §1

Ispinesib + Olaparib = compound: Cc1ccc(C(=O)N(CCCN)[C@@H](c2nc3cc(Cl)ccc3c(=O)n2Cc2ccccc2)C(C)C)cc1 [Ispinesib] + O=C(c1cc(Cc2n[nH]c(=O)c3ccccc23)ccc1F)N1CCN(C(=O)C2CC2)CC1 [Olaparib] (partner 8 µM)
In short: as §1

Row | Cell Line | relative viability (Linsitinib + Pictilisib; first compound 0.01 µM) | relative viability (Linsitinib + Pictilisib; first compound 0.03162 µM) | relative viability (Linsitinib + Pictilisib; first compound 0.1 µM) | relative viability (Linsitinib + Pictilisib; first compound 0.3162 µM) | relative viability (Linsitinib + Pictilisib; first compound 1 µM) | relative viability (Ispinesib + Palbociclib; first compound 0.001 µM) | relative viability (Ispinesib + Palbociclib; first compound 0.003162 µM) | relative viability (Ispinesib + Palbociclib; first compound 0.01 µM) | relative viability (Ispinesib + Palbociclib; first compound 0.03162 µM) | relative viability (Ispinesib + Palbociclib; first compound 0.1 µM) | relative viability (Ispinesib + Dasatinib; first compound 0.001 µM) | relative viability (Ispinesib + Dasatinib; first compound 0.003162 µM) | relative viability (Ispinesib + Dasatinib; first compound 0.01 µM) | relative viability (Ispinesib + Dasatinib; first compound 0.03162 µM) | relative viability (Ispinesib + Dasatinib; first compound 0.1 µM) | relative viability (Ispinesib + Olaparib; first compound 0.001 µM) | relative viability (Ispinesib + Olaparib; first compound 0.003162 µM) | relative viability (Ispinesib + Olaparib; first compound 0.01 µM) | relative viability (Ispinesib + Olaparib; first compound 0.03162 µM) | relative viability (Ispinesib + Olaparib; first compound 0.1 µM)
1 | HCC-78 | 0.205 | 0.225 | 0.162 | 0.203 | 0.204 | 0.427 | 0.586 | 0.516 | 0.473 | 0.351 | 0.388 | 0.542 | 0.464 | 0.348 | 0.267 | 0.876 | 0.82 | 0.887 | 0.704 | 0.59
2 | HCC-366 | 0.127 | 0.0857 | 0.0909 |  | 0.108 | 0.289 | 0.448 | 0.497 | 0.5 | 0.0937 | 0.701 | 0.74 | 0.733 | 0.704 | 0.0265 | 0.355 | 0.434 | 0.372 | 0.476 | 0.0931
3 | HCC-827 | 1.07 | 1.19 | 1.11 | 0.88 | 1.12 | 0.496 | 0.49 | 0.58 | 0.543 | 0.477 | 0.36 | 0.318 | 0.317 | 0.292 | 0.263 | 0.652 | 0.672 | 0.67 | 0.686 | 0.601
4 | HOP-62 | 0.894 | 0.715 | 0.934 |  | 0.356 | 0.448 | 0.548 | 0.617 | 0.516 | 0.388 | 0.815 | 0.824 | 0.837 | 0.534 | 0.251 | 0.62 | 0.215 | 0.341 | 0.312 | 0.186
5 | IA-LM | 0.329 | 0.409 | 0.334 | 0.349 | 0.156 |  |  |  |  |  |  |  |  |  |  | 0.916 | 0.938 | 1.15 | 1.02 | 0.155
6 | LC-2-ad | 0.423 | 0.369 | 0.409 | 0.396 | 0.269 | 0.541 | 0.54 | 0.566 | 0.482 | 0.272 | 0.566 | 0.716 | 0.737 | 0.318 | 0.133 | 0.728 | 0.728 | 0.711 | 0.816 | 0.293
7 | LCLC-97TM1 | 0.283 | 0.254 | 0.208 | 0.117 | 0.154 | 0.238 | 0.343 | 0.279 | 0.181 | 0.119 | 0.86 | 0.825 | 1.03 | 0.631 | 0.221 | 0.396 | 0.544 | 0.406 | 0.318 | 0.216
8 | LCLC-103H | 0.686 | 0.566 | 0.596 | 0.718 | 0.535 | 0.447 | 0.545 | 0.476 | 0.441 | 0.465 | 0.553 | 0.506 | 0.602 | 0.302 | 0.244 | 0.8 | 0.888 | 0.856 | 0.746 | 0.775

— the supplement of paper PMC10307832
